Source: patent US4946828A, “Novel insulin peptides” (Novo Nordisk A/S, priority 1985, dated 1990)

Experiments:
[1] = after subcutaneous administration; cited from earlier work
fasted rabbits = experiment: Test for prolongation of insulin effect (hypoglycemic effect, British Pharmacopoeia 1980, A 142); type: in vivo, rabbit; settings: for Glucose in percent of initial, 1 h / Glucose in percent of initial, 2 h / Glucose in percent of initial, 4 h / Glucose in percent of initial, 6 h: pH 4.5, 14.3 nmole per rabbit s.c.; for Prolongation of action: about 240 nmole/ml
Experimental: Sterile injectable solutions of the compounds of formula I for testing of the degree of prolonged action were made using 1.6% (w/v) glycerol as the isotonicum, using 0.3% (w/v) m-cresol as the preservative, […] The pH values of the solutions were adjusted sufficiently off the isoelectric point of the compounds of formula I to keep the solutions clear upon storage at 4° C. The solutions contained 240 nmole/ml of the compounds of formula I. The concentration of 240 nmole/ml was established by measurement of the absorbance at 276 nm of a more concentrated stock solution devoid of m-cresol, using the molar extinction coefficient for porcine insulin of 6100 for these derivatives (see Handbuch der Inneren Medizin, Vol. 7/Part 2A, Editor: Oberdisse, 1975, 113). […] 1 U corresponds to 5.95 nmole.
Injectable solutions containing 240 nmole/ml of the compounds of formula I stated in Table II and having the pH values and content of zinc stated therein were made.
The prolongation of the hypoglycemic effect produced by the injectable solutions of insulin was tested according to British Pharmacopoeia 1980, A 142, in fasted rabbits. Each test solution was administered subcutaneously in a dosis of 14.3 nmole per rabbit in 12 animals weighing 3-4 kg, and the course of the hypoglycemia was followed for 6 hours.

mouse = experiment: Mouse blood sugar depletion test (British Pharmacopoeia 1980, A 141-A 142); type: in vivo; settings: solutions without additions of zinc (zinc content 8-10 μg/ml from crystals); estimated potencies
Experimental: The potencies of insulin compounds were accessed in the mouse blood sugar depletion test (British Pharmacopoeia 1980, A 141-A 142). In order to minimize the problem of estimating potency of insulins having a timing different from the standard, insulin solutions for potency determinations were made up without additions of zinc. Solutions were made up to contain […] based on the absorbance at 276 nm. The zinc content of solutions were 8-10 μg/ml, arising from the crystalline derivatives.

## A1,B29-di-Boc substituted insulin
[1]
  Prolonged insulin action: too slightly prolonged action to be clinically useful

## Arg^B27 human insulin [Arg^B27 insulin]
Fasted rabbits; Zn++ 80 μg/ml
  Glucose in percent of initial, 1 h: 45% of initial
  Glucose in percent of initial, 2 h: 34% of initial
  Glucose in percent of initial, 4 h: 51% of initial
  Glucose in percent of initial, 6 h: 91% of initial
mouse
  Potency relative to insulin, %: 87%

## Arg^B27,Lys^B30 --NH2 human insulin [Arg^B27,Lys^B30 --NH2 insulin]
Fasted rabbits; Zn++ 10.9 μg/ml
  Glucose in percent of initial, 1 h: 78% of initial
  Glucose in percent of initial, 2 h: 73% of initial
  Glucose in percent of initial, 4 h: 69% of initial
  Glucose in percent of initial, 6 h: 67% of initial
Fasted rabbits; Zn++ 80 μg/ml
  Glucose in percent of initial, 1 h: 85% of initial
  Glucose in percent of initial, 2 h: 83% of initial
  Glucose in percent of initial, 4 h: 81% of initial
  Glucose in percent of initial, 6 h: 79% of initial
mouse
  Potency relative to insulin, %: 84%

## Arg^B27,Thr^B30 --NH2 human insulin [Arg^B27,Thr^B30 --NH2 insulin]
Fasted rabbits; 3 zinc atoms per hexamer, 8 μg zinc/ml
  Prolongation of action: very prolonged action
Fasted rabbits; Zn++ 80 μg/ml
  Glucose in percent of initial, 1 h: 88% of initial
  Glucose in percent of initial, 2 h: 86% of initial
  Glucose in percent of initial, 4 h: 85% of initial
  Glucose in percent of initial, 6 h: 81% of initial
Fasted rabbits; Zn++ […]
  Glucose in percent of initial, 1 h: 62% of initial
  Glucose in percent of initial, 2 h: 64% of initial
  Glucose in percent of initial, 4 h: 66% of initial
  Glucose in percent of initial, 6 h: 67% of initial
mouse
  Potency relative to insulin, %: 92%

## Gln^A4 insulin
mouse
  Potency relative to insulin, %: 79%

## Gln^A17,Arg^B27,Thr^B30 --NH2 human insulin [Gln^A17,Arg^B27,Thr^B30 --NH2 insulin]
mouse
  Potency relative to insulin, %: 71%

## Gln^A17,Arg^B27human insulin [Gln^A17,Arg^B27 insulin]
Fasted rabbits; Zn++ 80 μg/ml
  Glucose in percent of initial, 1 h: 53% of initial
  Glucose in percent of initial, 2 h: 47% of initial
  Glucose in percent of initial, 4 h: 50% of initial
  Glucose in percent of initial, 6 h: 66% of initial
mouse
  Potency relative to insulin, %: 69%

## Gln^A17,Gln^B13,Thr^B30 --NH2 human insulin [Gln^A17,Gln^B13,Thr^B30 --NH2 insulin]
mouse
  Potency relative to insulin, %: 49%

## Gln^A17,Lys^B30 --NH2 human insulin [Gln^A17,Lys^B30 --NH2 insulin]
Fasted rabbits; Zn++ 80 μg/ml
  Glucose in percent of initial, 1 h: 60% of initial
  Glucose in percent of initial, 2 h: 56% of initial
  Glucose in percent of initial, 4 h: 73% of initial
  Glucose in percent of initial, 6 h: 86% of initial
mouse
  Potency relative to insulin, %: 62%

## Gln^A17,Thr^B30 --NH2 human insulin [Gln^A17,Thr^B30 --NH2 insulin]
Fasted rabbits; Zn++ 80 μg/ml
  Glucose in percent of initial, 1 h: 65% of initial
  Glucose in percent of initial, 2 h: 63% of initial
  Glucose in percent of initial, 4 h: 68% of initial
  Glucose in percent of initial, 6 h: 83% of initial
mouse
  Potency relative to insulin, %: 67%

## Gln^B13,Arg^B27 human insulin [Gln^B13,Arg^B27 insulin]
Fasted rabbits; Zn++ 80 μg/ml
  Glucose in percent of initial, 1 h: 55% of initial
  Glucose in percent of initial, 2 h: 46% of initial
  Glucose in percent of initial, 4 h: 61% of initial
  Glucose in percent of initial, 6 h: 91% of initial
mouse
  Potency relative to insulin, %: 78%

## Gln^B13,Arg^B27,Thr^B30 --NH2 human insulin [Gln^B13,Arg^B27,Thr^B30 --NH2 insulin]
mouse
  Potency relative to insulin, %: 62%

## Gln^B13,Gln^A17 human insulin [Gln^A17,Gln^B13 insulin]
Fasted rabbits; Zn++ 80 μg/ml
  Glucose in percent of initial, 1 h: 53% of initial
  Glucose in percent of initial, 2 h: 47% of initial
  Glucose in percent of initial, 4 h: 55% of initial
  Glucose in percent of initial, 6 h: 82% of initial
mouse
  Potency relative to insulin, %: 50%

## Gln^B13,Thr^B30 --NH2 human insulin [Gln^B13,Thr^B30 --NH2 insulin]
Fasted rabbits; Zn++ […]
  Glucose in percent of initial, 1 h: 91% of initial
  Glucose in percent of initial, 2 h: 92% of initial
  Glucose in percent of initial, 4 h: 92% of initial
  Glucose in percent of initial, 6 h: 90% of initial

## Gln^B21 insulin
mouse
  Potency relative to insulin, %: 96%

## Lys^B27 human insulin [Lys^B27 insulin]
Fasted rabbits; Zn++ 80 μg/ml
  Glucose in percent of initial, 1 h: 47% of initial
  Glucose in percent of initial, 2 h: 40% of initial
  Glucose in percent of initial, 4 h: 55% of initial
  Glucose in percent of initial, 6 h: 93% of initial
mouse
  Potency relative to insulin, %: 88%

## Lys^B27,Lys^B30 --NH2 human insulin [Lys^B27,Lys^B30 --NH2 insulin]
Fasted rabbits; Zn++ 9.5 μg/ml
  Glucose in percent of initial, 1 h: 72% of initial
  Glucose in percent of initial, 2 h: 65% of initial
  Glucose in percent of initial, 4 h: 65% of initial
  Glucose in percent of initial, 6 h: 60% of initial
mouse
  Potency relative to insulin, %: 56%

## Lys^B27,Thr^B30 --NH2 human insulin [Lys^B27,Thr^B30 --NH2 insulin]
Fasted rabbits; Zn++ […]
  Glucose in percent of initial, 1 h: 56% of initial
  Glucose in percent of initial, 2 h: 55% of initial
  Glucose in percent of initial, 4 h: 62% of initial
  Glucose in percent of initial, 6 h: 61% of initial
mouse
  Potency relative to insulin, %: 82%

## Lys^B30 --NH2 insulin
Fasted rabbits; 30 zinc per hexamer, 80 μg zinc/ml
  Prolongation of action: moderate prolongation of action
Fasted rabbits; Zn++ 80 μg/ml
  Glucose in percent of initial, 1 h: 74% of initial
  Glucose in percent of initial, 2 h: 83% of initial
  Glucose in percent of initial, 4 h: 80% of initial
  Glucose in percent of initial, 6 h: 82% of initial
